Reference: patent publication US4061645A, “2-Trichloromethyl-5-methylsulfinyl-1,3,4-thiadiazole” (Schering Aktiengesellschaft, priority 1972, dated 1977)

The compounds below were run on Rhizoctonia solani (assay: Limit concentration of soil-fungicidal effectiveness, Rhizoctonia solani, infested soil seeded with peas (Example 1)). Conditions: 20 to 23 days, 22°-25° C.
Assay type: in vivo
Protocol: (§1) Limit concentrations of the soil-fungicidal effectiveness at homogeneous mixture of the products with the infested soil. Basic condition in the evaluation are a sound root formation without fungus necroses and germination of the seed of at least 90% compared with the result obtained in steamed soil. Per concentration there were seeded 25 grains of peas of the variety "Miracle of Kelvedon" (marrow pea) without a waiting period. The cultivation time in the tests was 20 to 23 days at a temperature of 22°-25° C. Four commercial products were included in the test series.
Rhizoctania solani: -- Steamed compost soil was inoculated with mycelium of Rhizoctonia solani.

SMILES | Limit concentration of the fungicidal effectiveness
C[S+]([O-])c1nnc(C(F)(F)Cl)s1 (centres unmarked) [Compound 55] | 10 mg of active substance per lit
CS(=O)(=O)c1nnc(C(F)(F)Cl)s1 [Compound 54] | 20 mg of active substance per lit

Same assay, conditions: soil, 480 h, 20 to 23 days, 22°-25° C, read-out: Limit concentration of the fungicidal effectiveness

SMILES | minimal effective concentration [µg/mL]
CC[S+]([O-])c1nnc(C(Cl)Cl)s1 (centres unmarked) [Compound 4, 2-dichloromethyl-5-ethylsulfinyl-1,3,4-thiadiazole] | 20
CCCCC(Br)c1nnc(S(C)(=O)=O)s1 (centres unmarked) [Compound 52, 2-(1-bromopentyl)-5-methylsulfonyl-1,3,4-thiadiazole] | 100
CCC[S+]([O-])c1nnc(C(Cl)Cl)s1 (centres unmarked) [Compound 5, 2-dichloromethyl-5-propylsulfinyl-1,3,4-thiadiazole] | 20
CC(C)CC(Br)c1nnc(S(C)(=O)=O)s1 (centres unmarked) [Compound 53, 2-(1-bromoisopentyl)-5-methylsulfonyl-1,3,4-thiadiazole] | 100

Same assay, conditions: soil, 480 h, read-out: Limit concentration of the fungicidal effectiveness

SMILES | minimal effective concentration [µg/mL]
O=[N+]([O-])c1c(Cl)c(Cl)c(Cl)c(Cl)c1Cl [Pentachloronitrobenzene, pentachloronitrobenzene, reference compound] | 75

The compounds below were run on Rhizoctonia solani (assay: Rhizoctonia solani infested compost soil, marrow peas (Example 3)). Conditions: 50 mg active ingr. per liter of soil; 3 weeks.
Assay type: in vivo
From the text: Steamed compost soil was inoculated with mycelium of Rhizoctonia solani. After homogeneous mixture of the products with the infested soil, the products were present in the form of 20% powder preparations, the seeding of 25 grains of marrow peas of the variety "Miracle of Kelvedon" per concentration was effected without waiting period in clay dishes holding 1 liter of soil. The table lists the number of germinated sound peas, the weight of the fresh plant, and a root evaluation after a cultivation period of three weeks at 22°-25° C.

SMILES | Weight of fresh plant [g]
O=[N+]([O-])c1c(Cl)c(Cl)c(Cl)c(Cl)c1Cl [Pentachloronitrobenzene, pentachloronitrobenzene, reference compound] | 4

Same assay, conditions: 50 mg active ingr. per liter of soil; of 25 grains

SMILES | Number of sound peas after 3 wks.
O=[N+]([O-])c1c(Cl)c(Cl)c(Cl)c(Cl)c1Cl [Pentachloronitrobenzene, pentachloronitrobenzene, reference compound] | 4

Same assay, conditions: 100 mg active ingr. per liter of soil; 3 weeks

SMILES | Weight of fresh plant [g]
O=[N+]([O-])c1c(Cl)c(Cl)c(Cl)c(Cl)c1Cl [Pentachloronitrobenzene, pentachloronitrobenzene, reference compound] | 15

Same assay, conditions: 100 mg active ingr. per liter of soil; of 25 grains

SMILES | Number of sound peas after 3 wks.
O=[N+]([O-])c1c(Cl)c(Cl)c(Cl)c(Cl)c1Cl [Pentachloronitrobenzene, pentachloronitrobenzene, reference compound] | 25

The compounds below were run on Meloidogyne incognita (assay: Nematocidal action, infested compost soil, cucumber seeds (Example 8)). Conditions: 40 mg per liter of soil; 30 days.
Assay type: in vivo
Protocol: The products as 20% powder preparations were homogeneously admixed with a compost soil heavily infested by root gal nematodes. Without a waiting period, 20 cucumber seeds per concentration were seeded. After a cultivation time of 30 days at a temperature of 23°-25° C, the nematocidal action was evaluated by counting the root galls formed in the waterbath. The following table states the reduction of attack in percent. In the control, an average of 90 root galls per seedling had formed.

SMILES | Nematocidal action in % (reduction of attack) [%]
CC[S+]([O-])c1nnc(C(Cl)Cl)s1 (centres unmarked) [Compound 4, 2-dichloromethyl-5-ethylsulfinyl-1,3,4-thiadiazole] | 96
CCC[S+]([O-])c1nnc(C(Cl)Cl)s1 (centres unmarked) [Compound 5, 2-dichloromethyl-5-propylsulfinyl-1,3,4-thiadiazole] | 90

Same assay, conditions: 60 mg per liter of soil; 30 days

SMILES | Nematocidal action in % (reduction of attack) [%]
CC[S+]([O-])c1nnc(C(Cl)Cl)s1 (centres unmarked) [Compound 4, 2-dichloromethyl-5-ethylsulfinyl-1,3,4-thiadiazole] | 99
CCC[S+]([O-])c1nnc(C(Cl)Cl)s1 (centres unmarked) [Compound 5, 2-dichloromethyl-5-propylsulfinyl-1,3,4-thiadiazole] | 98

Each compound was assayed on Pythium ultimum (assay: Limit concentration of soil-fungicidal effectiveness, Pythium ultimum, infested soil seeded with peas (Example 1)). Conditions: 20 to 23 days, 22°-25° C.
Assay type: in vivo
Protocol: as §1
Pythium ultimum: -- Steamed compost soil was inoculated with mycelium of Pythium ultimum

SMILES | Limit concentration of the fungicidal effectiveness
C[S+]([O-])c1nnc(C(F)(F)Cl)s1 (centres unmarked) [Compound 55] | 10 mg of active substance per lit
CCCCC(Br)c1nnc(S(C)(=O)=O)s1 (centres unmarked) [Compound 52, 2-(1-bromopentyl)-5-methylsulfonyl-1,3,4-thiadiazole] | no effect
O=[N+]([O-])c1c(Cl)c(Cl)c(Cl)c(Cl)c1Cl [Pentachloronitrobenzene, pentachloronitrobenzene, reference compound] | insufficient
CS(=O)(=O)c1nnc(C(F)(F)Cl)s1 [Compound 54] | 10 mg of active substance per lit
CC(C)CC(Br)c1nnc(S(C)(=O)=O)s1 (centres unmarked) [Compound 53, 2-(1-bromoisopentyl)-5-methylsulfonyl-1,3,4-thiadiazole] | no effect
